Measurements: PubChem BioAssay AID1505 (Sanford-Burnham Center for Chemical Genomics, 2009)
Converted amounts (≈) assume the structure as drawn. The source made the active and inactive calls. How the calls were made is not given here.

Tested on: Y. pseudotuberculosis YP126 growth, MIC at 37 C
Test: Y. pseudotuberculosis growth inhibition MIC, strain YP126, 22/37/40 C (AID 1505)

| Structure (SMILES) | MIC | MIC (measured here: MIC at 22 C) | MIC (measured here: MIC at 40 C) |
| --- | --- | --- | --- |
| O=C(Nc1ccc2[nH]ccc2c1)c1cccs1 | 400 µM (inactive) (≈ 96.9 µg/mL) | 400 µM (≈ 96.9 µg/mL) | 400 µM (≈ 96.9 µg/mL) |
| Cc1ccc(CNC(=O)c2ccc([N+](=O)[O-])o2)cc1 | 25 µM (≈ 6.51 µg/mL) | 400 µM (≈ 104 µg/mL) | < 12 µM |
